Assay [1] concerns the target T1, androgen receptor (AR-LBD) (Rattus norvegicus, UniProt P15207).
T1 construct: 5 μL of 2×AR-LBD/Fluoromone AL Red Complex contained in the kit; purchased Invitrogen
T1 sequence (P15207 651-882 limits assumed): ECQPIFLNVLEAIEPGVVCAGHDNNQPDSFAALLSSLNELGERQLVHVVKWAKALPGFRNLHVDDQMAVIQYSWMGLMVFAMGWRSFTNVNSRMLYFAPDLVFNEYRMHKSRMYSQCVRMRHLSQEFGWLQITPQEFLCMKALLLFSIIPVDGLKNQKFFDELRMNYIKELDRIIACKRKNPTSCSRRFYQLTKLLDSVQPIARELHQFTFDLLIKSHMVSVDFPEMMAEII
Kind of assay: Evaluation of androgen receptor affinity (PolarScreen Androgen Receptor Competitor Assay Kit, Red; fluorescence polarization). Conditions: 22° C. for 5 hours, relative to binding rate of 1 μM DHT, read-out: AR affinity (pEC50) (converted). The gist of the method: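 Compounds were mixed with AR-LBD/Fluoromone AL Red complex and incubated 5 h at 22° C before fluorescence polarization was read. Binding was expressed relative to 1 μM dihydrotestosterone, and pEC50 (concentration giving 50% of that binding) came from a 4-parameter fit.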

The next assay has as its target T2, human androgen receptor (Homo sapiens, UniProt P10275).
T2 construct: expressed in transfected cells; host or cells: HEK293
T2 sequence (P10275 1-920): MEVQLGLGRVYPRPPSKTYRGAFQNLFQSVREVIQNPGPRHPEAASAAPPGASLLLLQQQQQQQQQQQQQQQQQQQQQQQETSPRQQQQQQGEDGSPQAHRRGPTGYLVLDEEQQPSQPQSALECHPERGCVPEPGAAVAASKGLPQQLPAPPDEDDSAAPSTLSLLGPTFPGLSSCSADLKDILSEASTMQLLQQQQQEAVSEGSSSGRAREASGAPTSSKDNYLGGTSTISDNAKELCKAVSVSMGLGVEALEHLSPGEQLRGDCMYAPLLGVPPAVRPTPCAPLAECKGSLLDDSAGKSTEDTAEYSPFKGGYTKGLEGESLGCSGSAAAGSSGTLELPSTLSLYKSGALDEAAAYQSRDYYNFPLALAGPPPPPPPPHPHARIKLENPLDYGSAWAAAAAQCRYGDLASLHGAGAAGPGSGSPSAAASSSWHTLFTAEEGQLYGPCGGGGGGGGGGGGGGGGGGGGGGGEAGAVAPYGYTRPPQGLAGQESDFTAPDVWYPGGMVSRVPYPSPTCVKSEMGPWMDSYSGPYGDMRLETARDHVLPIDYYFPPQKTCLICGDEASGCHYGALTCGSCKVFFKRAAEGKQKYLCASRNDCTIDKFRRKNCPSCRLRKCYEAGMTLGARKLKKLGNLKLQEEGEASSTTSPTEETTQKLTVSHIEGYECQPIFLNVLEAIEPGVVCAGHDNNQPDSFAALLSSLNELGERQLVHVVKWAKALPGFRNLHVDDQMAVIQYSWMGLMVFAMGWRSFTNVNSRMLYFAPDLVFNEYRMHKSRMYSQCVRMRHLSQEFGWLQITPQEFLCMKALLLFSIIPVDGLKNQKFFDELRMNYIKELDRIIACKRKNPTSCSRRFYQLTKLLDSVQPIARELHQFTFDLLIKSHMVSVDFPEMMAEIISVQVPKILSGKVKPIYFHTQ
Kind of assay: Reporter assay of an androgen receptor responsive sequence (luciferase, transiently transfected HEK293 cells). The assay is classed as cell-based. The settings on record: 24 hours incubation, relative to activity of 100 nM DHT, read-out: AR transcriptive activity (pEC50) (converted). A digest of the protocol:
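HEK293 cells transiently transfected for 3 h with ARE-firefly luciferase, full-length human AR and TK-Renilla plasmids, then exposed to compound for 24 h at 37 °C in 5% charcoal-treated FBS/DMEM. Dual-Glo luminescence read; pEC50 from 4-parameter fit relative to 100 nM DHT.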
(In general: A reporter such as luciferase makes a cellular process visible.)

Regarding `Cc1sc(N(Cc2ccc(OC(F)(F)F)c(Cl)c2)c2ccc(C#N)cc2)nc1C(=O)NS(C)(=O)=O` [Compound 421, 2-[N-[[3-chloro-4-(trifluoromethoxy)phenyl]methyl]-4-cyano-anilino]-5-methyl-N-methylsulfonyl-thiazole-4-carboxamide], the EC50 in assay [1] is 20 nM; on human androgen receptor, 200 nM.
Turning to `CSc1cccc(CN(c2ccc(C#N)cc2)c2nc(C(=O)NS(C)(=O)=O)c(C)s2)c1` [Compound 431, 2-[4-cyano-N-[(3-methylsulfanylphenyl)methyl]anilino]-5-methyl-N-methylsulfonyl-thiazole-4-carboxamide], the results for the EC50 (in assay [1]; on human androgen receptor) were 20 nM and 316 nM, respectively.
Consider `Cc1sc(N(Cc2cccc3nsnc23)c2ccc(C#N)cc2)nc1C(=O)NS(C)(=O)=O` [Compound 437, 2-[N-(2,1,3-benzothiadiazol-4-ylmethyl)-4-cyano-anilino]-5-methyl-N-methylsulfonyl-thiazole-4-carboxamide], for which the figures for the EC50 (in assay [1]; at human androgen receptor) were 50.1 nM and 126 nM, respectively.
The matching figures for `Cc1sc(N(CCCC(C)C)c2ccc(C#N)cc2)nc1C(=O)NS(C)(=O)=O` [Compound 438, 2-(4-cyano-N-isohexyl-anilino)-5-methyl-N-methylsulfonyl-thiazole-4-carboxamide]: 25.1 nM and 398 nM.
In the case of `CC(C)=CCN(c1ccc(C#N)cc1)c1nc(C(=O)NS(C)(=O)=O)c(C)s1` [Compound 439, 2-[4-cyano-N-(3-methylbut-2-enyl)anilino]-5-methyl-N-methylsulfonyl-thiazole-4-carboxamide], the EC50 in assay [1] is 50.1 nM; at human androgen receptor, 126 nM.
On to `Cc1sc(N(CCC2CCCC(O)C2)c2ccc(C#N)cc2)nc1C(=O)NS(C)(=O)=O` (stereo not shown) [Compound 442, 2-[4-cyano-N-[2-(3-hydroxycyclohexyl)ethyl]anilino]-5-methyl-N-methylsulfonyl-thiazole-4-carboxamide], for which the EC50 is 316 nM in assay [1] and 1260 nM on human androgen receptor.
`Cc1sc(N(CCC2CCCCO2)c2ccc(C#N)cc2)nc1C(=O)NS(C)(=O)=O` (stereo not shown) [Compound 443, 2-[4-cyano-N-(2-tetrahydropyran-2-ylethyl)anilino]-5-methyl-N-methylsulfonyl-thiazole-4-carboxamide]: the EC50 in assay [1] was 200 nM; at human androgen receptor, 501 nM.
Turning to `Cc1sc(N(CC2CC3CCC2C3)c2ccc(C#N)cc2)nc1C(=O)NS(C)(=O)=O` (stereo not shown) [Compound 447, 2-[4-cyano-N-(norbornan-2-ylmethyl)anilino]-5-methyl-N-methylsulfonyl-thiazole-4-carboxamide], the results for the EC50 (in assay [1]; on human androgen receptor) were 50.1 nM and 2510 nM, respectively.
On to `Cc1sc(N(Cc2cccc(C(F)F)c2)c2ccc(C#N)cc2)nc1C(=O)NS(C)(=O)=O` [Compound 450, 2-[4-cyano-N-[[3-(difluoromethyl)phenyl]methyl]anilino]-5-methyl-N-methylsulfonyl-thiazole-4-carboxamide], for which the EC50 in assay [1] is 31.6 nM; at human androgen receptor, 50.1 nM.
Consider `Cc1sc(N(Cc2ccccc2)c2ccc(C#N)c(C(F)(F)F)c2)nc1C(=O)NS(C)(=O)=O` [Compound 451, 2-[N-benzyl-4-cyano-3-(trifluoromethyl)anilino]-5-methyl-N-methylsulfonyl-thiazole-4-carboxamide], for which the EC50 in assay [1] is 25.1 nM; on human androgen receptor, 50.1 nM.
The like results for `CSc1ccccc1CN(c1ccc(C#N)cc1)c1nc(C(=O)NS(C)(=O)=O)c(C)s1` [Compound 452, 2-[4-cyano-N-[(2-methylsulfanylphenyl)methyl]anilino]-5-methyl-N-methylsulfonyl-thiazole-4-carboxamide] were, in that order, 50.1 nM and 200 nM.
With `Cc1sc(N(CC2Cc3ccccc3C2)c2ccc(C#N)cc2)nc1C(=O)NS(C)(=O)=O` [Compound 454, 2-[4-cyano-N-(indan-2-ylmethyl)anilino]-5-methyl-N-methylsulfonyl-thiazole-4-carboxamide], the EC50 in assay [1] is 50.1 nM; at human androgen receptor, 251 nM.
Consider `COc1ccccc1CN(c1ccc(C#N)cc1)c1nc(C(=O)NS(C)(=O)=O)c(C)s1` [Compound 455, 2-[4-cyano-N-[(2-methoxyphenyl)methyl]anilino]-5-methyl-N-methylsulfonyl-thiazole-4-carboxamide], for which the EC50 is 100 nM in assay [1] and 501 nM at human androgen receptor.
For `Cc1sc(N(Cc2csc(C(C)C)n2)c2ccc(C#N)cc2)nc1C(=O)NS(C)(=O)=O` [Compound 456, 2-[4-cyano-N-[(2-isopropylthiazol-4-yl)methyl]anilino]-5-methyl-N-methylsulfonyl-thiazole-4-carboxamide], the figures for the EC50 (in assay [1]; at human androgen receptor) were 50.1 nM and 200 nM, respectively.
For the molecule `Cc1sc(N(Cc2ccccc2O)c2ccc(C#N)cc2)nc1C(=O)NS(C)(=O)=O` [Compound 461, 2-[4-cyano-N-[(2-hydroxyphenyl)methyl]anilino]-5-methyl-N-methylsulfonyl-thiazole-4-carboxamide], the EC50 in assay [1] is 100 nM; at human androgen receptor, 158 nM.
Turning to `Cc1sc(N(CC(=O)c2ccccc2)Cc2ccccc2)nc1C(=O)NS(C)(=O)=O` [Compound 463, 2-[benzyl(phenacyl)amino]-5-methyl-N-methylsulfonyl-thiazole-4-carboxamide], the EC50 is 316 nM in assay [1] and 5010 nM on human androgen receptor.
As to `Cc1sc(N(Cc2csc3cccc(C)c23)c2ccc(C#N)cc2)nc1C(=O)NS(C)(=O)=O` [Compound 464, 2-[4-cyano-N-[(4-methylbenzothiophen-3-yl)methyl]anilino]-5-methyl-N-methylsulfonyl-thiazole-4-carboxamide], the figures for the EC50 (in assay [1]; on human androgen receptor) were 63.1 nM and 5010 nM, respectively.
For `Cc1sc(N(Cc2csc(COc3ccccc3)n2)c2ccc(C#N)cc2)nc1C(=O)NS(C)(=O)=O` [Compound 465, 2-[4-cyano-N-[[2-(phenoxymethyl)thiazol-4-yl]methyl]anilino]-5-methyl-N-methylsulfonyl-thiazole-4-carboxamide], the EC50 was 25.1 nM in assay [1] and 794 nM at human androgen receptor.
In the case of `Cc1sc(N(Cc2cnc(C3CC3)s2)c2ccc(C#N)cc2)nc1C(=O)NS(C)(=O)=O` [Compound 466, 2-[4-cyano-N-[(2-cyclopropylthiazol-5-yl)methyl]anilino]-5-methyl-N-methylsulfonyl-thiazole-4-carboxamide], the EC50 was 100 nM in assay [1] and 398 nM on human androgen receptor.
In the case of `Cc1sc(N(Cc2ccc(F)cc2)c2ccc(C(F)(F)F)nc2)nc1C(=O)NS(C)(=O)=O` [Compound 469, 2-[(4-fluorophenyl)methyl-[6-(trifluoromethyl)-3-pyridyl]amino]-5-methyl-N-methylsulfonyl-thiazole-4-carboxamide], the EC50 in assay [1] was 158 nM; at human androgen receptor it was 316 nM.
Regarding `Cc1sc(N(Cc2ccc(Cl)cc2)c2ccc(C(F)(F)F)nc2)nc1C(=O)NS(C)(=O)=O` [Compound 470, 2-[(4-chlorophenyl)methyl-[6-(trifluoromethyl)-3-pyridyl]amino]-5-methyl-N-methylsulfonyl-thiazole-4-carboxamide], the EC50 in assay [1] was 126 nM; at human androgen receptor, 158 nM.
On to `Cc1sc(N(Cc2ccc(OC(F)(F)F)cc2)c2ccc(C(F)(F)F)nc2)nc1C(=O)NS(C)(=O)=O` [Compound 471, 5-methyl-N-methylsulfonyl-2-[[4-(trifluoromethoxy)phenyl]methyl-[6-(trifluoromethyl)-3-pyridyl]amino]thiazole-4-carboxamide], for which the figures for the EC50 (in assay [1]; on human androgen receptor) were 100 nM and 1000 nM, respectively.
For `Cc1sc(N(Cc2ccc(OC(F)F)cc2)c2ccc(C(F)(F)F)nc2)nc1C(=O)NS(C)(=O)=O` [Compound 472, 2-[[4-(difluoromethoxy)phenyl]methyl-[6-(trifluoromethyl)-3-pyridyl]amino]-5-methyl-N-methylsulfonyl-thiazole-4-carboxamide], the EC50 was 126 nM in assay [1] and 398 nM on human androgen receptor.

Values taken from patent US10689354B2, “Aminoazole derivative” (Teijin Pharma Limited, priority 2015, dated 2020).
